Results on one molecule are retold here after ChEMBL document CHEMBL5241107, “Discovery of an eIF4A Inhibitor with a Novel Mechanism of Action” (J Med Chem, 2021).

Molecules are shown by their SMILES. Active and inactive are the calls of the source. The rule behind the calls is not given here.

Assay [1] deals with T1, Eukaryotic initiation factor 4A-I (Homo sapiens, UniProt P60842). The experiment in a line: Uncompetitive inhibition of human recombinant N-terminal His6-tagged eIF4A expressed in Escherichia coli BL21 CodonPlus cells assessed as decrease in Km and Vmax of ATP using varying concentrations of ATP and 250 ug/ml yeast RNA as substrate preincubated with enzyme for 20 mins followed by substrate addition and measured after 1 to 7 hrs by Malachite green ATPase assay. The settings on record: time 80-440 min.

Assay [2] deals with T1, Eukaryotic initiation factor 4A-I. The experiment in a line: Competitive inhibition of human recombinant N-terminal His6-tagged eIF4A expressed in Escherichia coli BL21 CodonPlus cells assessed as […] with constant Vmax of RNA using 250 uM ATP and varying concentration of yeast RNA as substrate preincubated with enzyme for 20 mins followed by substrate addition and measured after 1 to 7 hrs by Malachite green ATPase assay. The note with it: time 80-440 min.

Assay [3] addresses Eukaryotic initiation factor 4A-I (Homo sapiens, UniProt P60842, R110L). The experiment in a line: Inhibition of human recombinant N-terminal His6-tagged eIF4A R110L mutant expressed in Escherichia coli BL21 CodonPlus cells using ATP and yeast RNA as substrate preincubated with enzyme for 20 mins followed by susbtrate addition and measured after 4 hrs by Malachite green ATPase assay.

Assay [4] addresses Eukaryotic initiation factor 4A-I (Homo sapiens, UniProt P60842, R110M). As to the kind of experiment: Inhibition of human recombinant N-terminal His6-tagged eIF4A R110M mutant expressed in Escherichia coli BL21 CodonPlus cells using ATP and yeast RNA as substrate preincubated with enzyme for 20 mins followed by susbtrate addition and measured after 4 hrs by Malachite green ATPase assay.

In assay [5] the target is Eukaryotic initiation factor 4A-I (Homo sapiens, UniProt P60842, R110E). The experiment in a line: Inhibition of human recombinant N-terminal His6-tagged eIF4A R110E mutant expressed in Escherichia coli BL21 CodonPlus cells using ATP and yeast RNA as substrate preincubated with enzyme for 20 mins followed by susbtrate addition and measured after 4 hrs by Malachite green ATPase assay.

For assay [6], the target named is Eukaryotic initiation factor 4A-I (Homo sapiens, UniProt P60842, T158A). The experiment in a line: Inhibition of human recombinant N-terminal His6-tagged eIF4A T158A mutant expressed in Escherichia coli BL21 CodonPlus cells using ATP and yeast RNA as substrate preincubated with enzyme for 20 mins followed by susbtrate addition and measured after 4 hrs by Malachite green ATPase assay.

The target of assay [7] is Eukaryotic initiation factor 4A-I (Homo sapiens, UniProt P60842, T158V). The experiment in a line: Inhibition of human recombinant N-terminal His6-tagged eIF4A T158V mutant expressed in Escherichia coli BL21 CodonPlus cells using ATP and yeast RNA as substrate preincubated with enzyme for 20 mins followed by susbtrate addition and measured after 4 hrs by Malachite green ATPase assay.

Assay [8] has as its target Eukaryotic initiation factor 4A-I (Homo sapiens, UniProt P60842, R311K). The experiment in a line: Inhibition of human recombinant N-terminal His6-tagged eIF4A R311K mutant expressed in Escherichia coli BL21 CodonPlus cells using ATP and yeast RNA as substrate preincubated with enzyme for 20 mins followed by susbtrate addition and measured after 4 hrs by Malachite green ATPase assay.

Assay [9] has as its target Eukaryotic initiation factor 4A-I (Homo sapiens, UniProt P60842, R311E). The experiment in a line: Inhibition of human recombinant N-terminal His6-tagged eIF4A R311E mutant expressed in Escherichia coli BL21 CodonPlus cells using ATP and yeast RNA as substrate preincubated with enzyme for 20 mins followed by susbtrate addition and measured after 4 hrs by Malachite green ATPase assay.

In assay [10] the test system is BJAB. The experiment in a line: Cytotoxicity against human BJAB cells assessed as reduction in cell viability measured after 72 hrs by CellTiter-Glo luminescent assay. The settings on record: Homo sapiens, BJAB, 72 h; read-out: EC50. It counts as functional, cell-based.
Assay [11] concerns Reticulocyte. As to the kind of experiment: Inhibition of eIF4A in rabbit reticulocyte lysate assessed as inhibition of cap-dependent translation of firefly luciferase using bicistronic luciferase reporter [pSP/(CAG)33/FF/HCV/Ren.pA51] incubated for 90 mins by luciferase reporter gene based luminescence analysis. It counts as subcellular. The note with it: Oryctolagus cuniculus.

The test system of assay [12] is Reticulocyte. As to the kind of experiment: Inhibition of IRES-dependent translation of renilla luciferase in rabbit reticulocyte lysates using bicistronic luciferase reporter [pSP/(CAG)33/FF/HCV/Ren.pA51] incubated for 90 mins by luciferase reporter gene based luminescence analysis. The assay is classed as functional, subcellular. The note with it: Oryctolagus cuniculus.

In assay [13] the target is T1, Eukaryotic initiation factor 4A-I. The experiment in a line: Binding affinity to eIF4A in human A549 cells assessed as increase in thermal stability of the protein incubated for 90 mins by CETSA analysis. It counts as cell-based. The settings on record: dose 0.041-10 µM.
The target is the same in assay [14]. The experiment in a line: Displacement of MANT-ATP from human recombinant N-terminal His6-tagged eIF4A expressed in Escherichia coli BL21 CodonPlus cells at 200 uM preincubated with enzyme and yeast RNA for 20 mins followed by MANT-ATP addition for 30 mins by fluorescence polarization assay. The settings on record: time 50.0 min.
Assay [15] shares this target. As to the kind of experiment: Displacement of FAM-[AG]8 from human recombinant N-terminal His6-tagged eIF4A expressed in Escherichia coli BL21 CodonPlus cells preincubated with enzyme for 20 mins followed by FAM-[AG]8 addition for 30 mins by fluorescence polarization assay. The settings on record: time 50.0 min.
The target is the same in assay [16]. As to the kind of experiment: Binding affinity to human recombinant N-terminal His6-tagged eIF4A expressed in Escherichia coli BL21 CodonPlus cells assessed as increase in melting temperature at 3.13 to 50 uM incubated for 5 mins by differential scanning fluorimetry. The note with it: dose 3.13-50 µM.
Assay [17] shares this target. As to the kind of experiment: Inhibition of helicase activity of human recombinant N-terminal His6-tagged eIF4A expressed in Escherichia coli BL21 CodonPlus cells assessed as increase in double stranded signal using Cy3-labeled RNA strand and unlabeled DNA strand by native PAGE analysis.
The target is the same in assay [18]. As to the kind of experiment: Inhibition of helicase activity of human recombinant N-terminal His6-tagged eIF4A expressed in Escherichia coli BL21 CodonPlus cells assessed as decrease in single stranded signal using Cy3-labeled RNA strand and unlabeled DNA strand by native PAGE analysis.
Assay [19] has the same target. The experiment in a line: Inhibition of helicase activity of human recombinant N-terminal His6-tagged eIF4A expressed in Escherichia coli BL21 CodonPlus cells using Cy3-labeled RNA strand and unlabeled DNA strand by native PAGE analysis.
In assay [20] the test system is Eukaryotic initiation factor 4A-I (Homo sapiens), P60842 [R110K]. As to the kind of experiment: Inhibition of human recombinant N-terminal His6-tagged eIF4A R110K mutant expressed in Escherichia coli BL21 CodonPlus cells using ATP and yeast RNA as substrate preincubated with enzyme for 20 mins followed by susbtrate addition and measured after 4 hrs by Malachite green ATPase assay. The note with it: time 260.0 min.
Sequence of Eukaryotic initiation factor 4A-I (Homo sapiens), P60842 [R110K] (P60842 whole entry R110K): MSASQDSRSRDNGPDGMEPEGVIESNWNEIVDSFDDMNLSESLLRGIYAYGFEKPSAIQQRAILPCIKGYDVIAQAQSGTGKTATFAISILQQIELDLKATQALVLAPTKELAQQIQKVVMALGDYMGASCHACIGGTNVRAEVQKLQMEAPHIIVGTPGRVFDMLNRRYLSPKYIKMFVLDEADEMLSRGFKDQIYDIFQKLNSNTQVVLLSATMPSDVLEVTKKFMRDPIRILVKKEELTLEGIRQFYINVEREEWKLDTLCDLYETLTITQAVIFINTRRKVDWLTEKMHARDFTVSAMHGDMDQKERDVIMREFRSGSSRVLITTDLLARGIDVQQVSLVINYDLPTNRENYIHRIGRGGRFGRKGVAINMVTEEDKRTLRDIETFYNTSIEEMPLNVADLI

T1 sequence (P60842 whole entry): as the sequence (P60842 whole entry R110K) above, with K110R counted along it
Sequence of Eukaryotic initiation factor 4A-I (Homo sapiens, UniProt P60842, T158V) (P60842 2-406 T158V limits assumed): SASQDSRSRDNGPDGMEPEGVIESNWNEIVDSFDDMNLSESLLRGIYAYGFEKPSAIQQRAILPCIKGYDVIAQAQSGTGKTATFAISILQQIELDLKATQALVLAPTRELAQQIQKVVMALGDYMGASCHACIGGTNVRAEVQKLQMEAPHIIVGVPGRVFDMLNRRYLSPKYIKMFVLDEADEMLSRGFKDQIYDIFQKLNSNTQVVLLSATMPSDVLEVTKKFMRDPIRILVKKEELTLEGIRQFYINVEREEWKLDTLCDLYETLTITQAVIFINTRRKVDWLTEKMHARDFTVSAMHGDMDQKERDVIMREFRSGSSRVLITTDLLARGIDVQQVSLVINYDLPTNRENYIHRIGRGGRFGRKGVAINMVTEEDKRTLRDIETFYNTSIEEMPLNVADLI
Sequence of Eukaryotic initiation factor 4A-I (Homo sapiens, UniProt P60842, R110E) (P60842 2-406 R110E limits assumed): as the sequence (P60842 2-406 T158V limits assumed) above, with R109E, V157T counted along it
Sequence of Eukaryotic initiation factor 4A-I (Homo sapiens, UniProt P60842, R110L) (P60842 2-406 R110L limits assumed): as the sequence (P60842 2-406 T158V limits assumed) above, with R109L, V157T counted along it
Sequence of Eukaryotic initiation factor 4A-I (Homo sapiens, UniProt P60842, R311K) (P60842 2-406 R311K limits assumed): as the sequence (P60842 2-406 T158V limits assumed) above, with V157T, R310K counted along it
Sequence of Eukaryotic initiation factor 4A-I (Homo sapiens, UniProt P60842, R110M) (P60842 2-406 R110M limits assumed): as the sequence (P60842 2-406 T158V limits assumed) above, with R109M, V157T counted along it
Sequence of Eukaryotic initiation factor 4A-I (Homo sapiens, UniProt P60842, R311E) (P60842 2-406 R311E limits assumed): as the sequence (P60842 2-406 T158V limits assumed) above, with V157T, R310E counted along it
Sequence of Eukaryotic initiation factor 4A-I (Homo sapiens, UniProt P60842, T158A) (P60842 2-406 T158A limits assumed): as the sequence (P60842 2-406 T158V limits assumed) above, with V157A counted along it

Consider `CCCCc1ccc(-c2ccc(-c3cc(C(=O)O)c4cc([N+](=O)[O-])ccc4n3)o2)cc1`, for which the inhibition entry in [1], in [2], in assay [11], in [15], in [17] and in [18] was “Active” in each case. Also, in assay [20], the inhibition result was “Active”. The IC50 in assay [3], in assay [4], in [5], in assay [6], in assay [7] and in assay [8] was > 50 µM each time. For the same molecule, the half-inhibitory concentration (IC50) in [9] is > 50 µM; in [19], 6.58 µM. In assay [10], the concentration giving a half-maximal response (EC50) was 0.463 µM. Moreover, the inhibition entry in assay [12] and in assay [14] was “inactive” each time. Further, in assay [13], the Activity entry is “Dose-Dependent Effect”. For the same molecule, the result in assay [16] was Active.
